Assay [1] deals with cortisone to cortisol conversion (11β-HSD1) in male C57BL/6 mice. The assay can be described thus: Acute In Vivo Cortisone Conversion Assay. The note with it: oral dose of 10 mg/kg, cortisone challenge 16 hours post dose, serum cortisol. The procedure: Acute In Vivo Cortisone Conversion Assay
In general, compounds are dosed orally into mice, the mice are challenged with a subcutaneous injection of cortisone at a set timepoint after compound injection, and the blood of each animal is collected some time later. Separated serum is then isolated and analyzed for levels of cortisone and cortisol by LC-MS/MS, followed by calculation of mean cortisol and percent inhibition of each dosing group. Specifically, male C57BL/6 mice are obtained from Harlan Sprague Dawley at average weight of 25 grams. Exact weights are taken upon arrival and the mice randomized into groups of similar weights. Compounds are prepared in 1% w-w HEC, 0.25% w-w polysorbate 80, 0.05% w-w Dow Corning antifoam #1510-US at various doses based on assumed average weight of 25 grams. Compounds are dosed orally, 200 μl per animal, followed by a subcutaneous dose, 200 μl per animal, of 30 mg/kg cortisone at 1 to 24 hours post compound dose. At 10 minutes post cortisone challenge, each animal is euthanized for 1 minute in a CO2 chamber, followed by blood collection via cardiac puncture into serum separator tubes. Once fully clotted, tubes are spun at 2500×g, 4° C. for 15 minutes, the serum transferred to wells of 96-well plates (Corning Inc, Costar #4410, cluster tubes, 1.2 ml, polypropylene), and the plates are frozen at −20° C. until analysis by LC-MS/MS. […]

Assay [2] addresses recombinant human 11β-HSD type 1 enzyme (Homo sapiens, UniProt P28845). The assay can be described thus: 11β-HSD Type 1 Enzyme Assay (NADPH fluorescence). Format: biochemical. Conditions: three hour incubation, read-out: Human 11-βHSD1 IC50. The procedure: 11β-HSD Type 1 Enzyme Assay
Human 11β-HSD type 1 activity is measured by assaying NADPH production by fluorescence assay. Solid compounds are dissolved in DMSO to a concentration of 10 mM. Twenty microliters of each are then transferred to a column of a 96-well polypropylene Nunc plate where they are further diluted 50-fold followed by subsequent two-fold titration, ten times across the plate with additional DMSO using a Tecan Genesis 200 automated system. Plates are then transferred to a Tecan Freedom 200 system with an attached Tecan Temo 96-well head and an Ultra 384 plate reader. Reagents are supplied in 96-well polypropylene Nunc plates and are dispensed individually into black 96-well Molecular Devices High Efficiency assay plates (40 μL/well capacity) in the following fashion: 9 μL/well of substrate (2.22 mM NADP, 55.5 μM Cortisol, 10 mM Tris, 0.25% Prionex, 0.1% Triton X100), 3 μL/well of water to compound wells or 3 μL to control and standard wells, 6 μL/well recombinant human 11β-HSD type 1 enzyme, 2 μL/well of compound dilutions. […] Final DMSO concentration is 0.5% for all compounds, controls and standards. […] Plates are then shaken once more for 15 seconds then placed into an Ultra 384 microplate reader (355EX/460EM) for detection of NADPH fluorescence.

The target of assay [3] is T1, 11β-HSD1 in primary human aortic smooth muscle cells (AoSMC) (Homo sapiens, UniProt P28845).
T1 construct: containing 12 ng/mL hTNFα to induce expression of 11β-HSD1; endogenous in cells; host or cells: primary human aortic smooth muscle cells (AoSMC), induced with hTNFα
The assay can be described thus: Human Aortic Smooth Muscle Cell Assay (cortisone to cortisol conversion). The note with it: AoSMC induced with hTNFα; cortisol by time resolved immunoassay. Format: cell-based. Here is the method:
Human Aortic Smooth Muscle Cell Assay
Primary human aortic smooth muscle cells (AoSMC) are cultured in 5% FBS growth medium to a passage number of 6, then pelleted by centrifugation and resuspended at a density of 9×10^4 cells/mL in 0.5% FBS assay medium containing 12 ng/mL hTNFα to induce expression of 11β-HSD1. Cells are seeded into 96-well tissue culture assay plates at 100 μL/well (9×10^3 cells/well) and incubated for 48 hours at 37° C., 5% CO2. Following induction, cells are incubated for 4 hours at 37° C., 5% CO2 in assay medium containing test compounds then treated with 10 μL/well of 10 μM cortisone solubilized in assay medium, and incubated for 16 hours at 37° C., 5% CO2. Medium from each well is transferred to a plate for subsequent analysis of cortisol using a competitive fluorescence resonance time resolved immunoassay. In solution, an allophycocyanin (APC)-cortisol conjugate and free cortisol analyte compete for binding to a mouse anti-cortisol antibody/Europium (Eu)-anti mouse IgG complex. Higher levels of free cortisol result in diminishing energy transfer from the Europium-IgG to the APC-cortisol complex resulting in less APC fluorescence. Fluorescent intensities for Europium and APC are measured using a LJL Analyst AD. Europium and APC excitation is measured using 360 nm excitation and 615 nm and 650 nm emission filters respectively. Time resolved parameters for Europuium were 1000 μs integration time with a 200 μs delay. APC parameters are set at 150 μs integration time with a 50 μs delay. Fluorescent intensities measured for APC are modified by dividing by the Eu fluorescence (APC/Eu). This ratio is then used to determine the unknown cortisol concentration by interpolation using a cortisol standard curve fitted with a 4-parameter logistic equation. These concentrations are then used to determine compound activity by plotting concentration versus % inhibition, fitting with a 4-parameter curve and reporting the IC50.

T1 sequence (P28845 whole entry): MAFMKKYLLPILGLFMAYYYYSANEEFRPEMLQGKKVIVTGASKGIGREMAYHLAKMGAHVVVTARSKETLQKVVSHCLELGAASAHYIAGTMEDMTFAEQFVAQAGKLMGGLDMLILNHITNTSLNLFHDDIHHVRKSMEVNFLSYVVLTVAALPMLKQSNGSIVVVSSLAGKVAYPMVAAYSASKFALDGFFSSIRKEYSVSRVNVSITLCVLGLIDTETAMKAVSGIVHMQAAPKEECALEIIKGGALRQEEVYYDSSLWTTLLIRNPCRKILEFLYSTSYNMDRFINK
Sequence of recombinant human 11β-HSD type 1 enzyme (P28845 whole entry): as above

As for `O=C(c1ccc(-c2cc(Cl)c(CC3CCN(C4CCCCC4)C3=O)c(Cl)c2)cc1)N1CCN(CCF)CC1` (single isomer, unassigned) [Example 62, 1-cyclohexyl-3-{3,5-dichloro-4′-[4-(2-fluoro-ethyl)-piperazine-1-carbonyl]-biphenyl-4-ylmethyl}-pyrrolidin-2-one], in assay [1], the “% Inhibition after 16 hours (dose of 10 (mg/kg))” value was 85%. In assay [2], the IC50 (commonly the concentration that gives 50% inhibition) amounted to 115 nM.

Compound `O=C(c1ccc(-c2cc(Cl)c(CC3CCN(C4CCCCC4)C3=O)c(Cl)c2)cc1)N1CCOCC1` (stereo not shown) [Example 4, 1-Cyclohexyl-3-[3,5-dichloro-4′-(morpholine-4-carbonyl)-biphenyl-4-ylmethyl]-pyrrolidin-2-one] returned an IC50 in assay [3] of 4.3 nM.

For the compound `COCCN(CCOC)C(=O)c1ccc(-c2cc(Cl)c(CC3CCN(C4CCCCC4)C3=O)c(Cl)c2)cc1` (stereo not shown) [Example 5], the midpoint of inhibition in assay [3], the IC50, lay at 6.4 nM.

For `O=C(c1ccc(-c2cc(Cl)c(CC3CCN(C4CCCCC4)C3=O)c(Cl)c2)cc1)N1CCNCC1` (stereo not shown) [Example 49, 1-cyclohexyl-3-[3,5-dichloro-4′-(piperazine-1-carbonyl)-biphenyl-4-ylmethyl]-pyrrolidin-2-one], in assay [3], the IC50 is 11.4 nM.

Regarding `O=C(c1ccc(-c2cc(Cl)c(CC3CCN([C@H]4CC[C@@H](O)CC4)C3=O)c(Cl)c2)cc1)N1CCS(=O)(=O)CC1` (stereo partly drawn) [Example 74, 3-[3,5-Dichloro-4′-(1,1-dioxo-1-lambda*6*-thiomorpholine-4-carbonyl)-biphenyl-4-ylmethyl]-cis-1-(4-hydroxy-cyclohexyl)-pyrrolidin-2-one], in assay [3], the IC50 turned out to be 6 nM.

Consider `O=C(c1ccc(-c2cc(Cl)c(C[C@@H]3CCN(C4CC=CCC4)C3=O)c(Cl)c2)cc1)N1CCC(C(F)(F)F)CC1` (stereo partly drawn) [Example 92, (R)-1-cyclohex-3-enyl-3-[3,5-dichloro-4′-(4-trifluoromethyl-piperidine-1-carbonyl)-biphenyl-4-ylmethyl]-pyrrolidin-2-one], for which the IC50 was 36.8 nM in assay [3] and 633 nM in assay [2].

As to `O=C(c1ccc(-c2cc(Cl)c(C[C@@H]3CCN(C4CCOCC4)C3=O)c(Cl)c2)cc1)N1CCC(C(F)(F)F)CC1` [Example 95, (R)-3-[3,5-dichloro-4′-(4-trifluoromethyl-piperidine-1-carbonyl)-biphenyl-4-ylmethyl]-1-(tetrahydro-pyran-4-yl)-pyrrolidin-2-one], the “% Inhibition after 16 hours (dose of 10 (mg/kg))” value in assay [1] turned out to be 80%.

Regarding `O=C(c1ccc(-c2cc(Cl)c(C[C@@H]3CCN(C4CCOCC4)C3=O)c(Cl)c2)cc1)N1CCS(=O)(=O)CC1` [Example 99, (R)-3-[3,5-Dichloro-4′-(1,1-dioxo-116-thiomorpholine-4-carbonyl)-biphenyl-4-ylmethyl]-1-(tetrahydro-pyran-4-yl)-pyrrolidin-2-one], in assay [3], half-maximal inhibition (IC50) was put at 72.8 nM.

For the origin of these results see patent US8088776B2 (Eli Lilly and Company, priority 2006, dated 2012).
